Reference: ChEMBL document CHEMBL1201862, “PubChem BioAssay data set” (2004)
Calls of active or inactive are those of the source.

Legend:
[1] = Shn3 3'UTR reporter inhibitors, dose response, cell-based, Clone20 osteoblasts, firefly luciferase, cherry-picked (AID 624132); assay type: functional;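 note: firefly luciferase luminescence from reporter carrying the Shn3 3'UTR in osteoblasts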
[2] = HepG2 cell cytotoxicity, dose response, cytotoxicity control for Shn3 inhibitor project, CellTiter-Glo, cherry-picked (AID 624134); assay type: functional, cell-based
[3] = control 3'UTR Renilla luciferase suppression, dose response, counter-screen for Shn3 inhibitor project, cell-based, Clone20-Shn3RL, cherry-picked (AID 624133); assay type: functional
Coagulation factor XII = target: T1, Coagulation factor XII (Homo sapiens, UniProt P00748); assay type: functional;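 note: activated factor XIIa alpha cleaving a fluorogenic AMC peptide substrate; inhibitor potency from loss of enzyme activity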
T1 sequence (P00748 whole entry): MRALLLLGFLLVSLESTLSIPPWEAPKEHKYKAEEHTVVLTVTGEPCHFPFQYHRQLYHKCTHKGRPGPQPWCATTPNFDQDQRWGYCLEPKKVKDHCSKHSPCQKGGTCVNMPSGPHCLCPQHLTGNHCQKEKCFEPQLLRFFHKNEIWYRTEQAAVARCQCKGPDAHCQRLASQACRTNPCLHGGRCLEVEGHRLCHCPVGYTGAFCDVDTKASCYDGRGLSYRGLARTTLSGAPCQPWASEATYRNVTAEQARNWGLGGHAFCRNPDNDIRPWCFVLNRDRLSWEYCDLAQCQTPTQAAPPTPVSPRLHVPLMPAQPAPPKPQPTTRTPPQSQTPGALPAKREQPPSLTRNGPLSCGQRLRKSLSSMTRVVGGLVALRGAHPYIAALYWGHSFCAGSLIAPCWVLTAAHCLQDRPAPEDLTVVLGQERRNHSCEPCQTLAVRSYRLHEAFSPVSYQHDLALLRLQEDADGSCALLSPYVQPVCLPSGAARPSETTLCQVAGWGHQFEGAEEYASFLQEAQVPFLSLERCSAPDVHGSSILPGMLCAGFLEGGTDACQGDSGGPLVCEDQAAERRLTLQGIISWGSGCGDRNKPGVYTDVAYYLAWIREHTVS

[4] = target: T2, Corticotropin-releasing factor receptor 2/Corticotropin-releasing factor-binding protein (Homo sapiens, UniProt P24387+Q13324); experiment: Dose Response confirmation of uHTS hits for small molecule antagonists of the CRF-binding protein and CRF-R2 receptor complex.; assay type: functional; settings: read-out: IC50_Mean
T2 sequence (Q13324 whole entry): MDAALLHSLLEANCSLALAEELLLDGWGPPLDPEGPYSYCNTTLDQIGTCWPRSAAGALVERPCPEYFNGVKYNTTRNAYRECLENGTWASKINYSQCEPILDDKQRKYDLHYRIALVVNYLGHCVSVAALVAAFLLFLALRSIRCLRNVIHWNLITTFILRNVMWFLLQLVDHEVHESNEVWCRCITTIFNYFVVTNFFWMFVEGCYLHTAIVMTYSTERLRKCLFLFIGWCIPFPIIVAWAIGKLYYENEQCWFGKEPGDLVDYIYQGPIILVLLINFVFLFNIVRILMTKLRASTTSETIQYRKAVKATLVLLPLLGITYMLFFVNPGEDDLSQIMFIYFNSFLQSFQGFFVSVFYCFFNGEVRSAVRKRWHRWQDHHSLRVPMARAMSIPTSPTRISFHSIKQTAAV
T2 sequence (P24387 whole entry): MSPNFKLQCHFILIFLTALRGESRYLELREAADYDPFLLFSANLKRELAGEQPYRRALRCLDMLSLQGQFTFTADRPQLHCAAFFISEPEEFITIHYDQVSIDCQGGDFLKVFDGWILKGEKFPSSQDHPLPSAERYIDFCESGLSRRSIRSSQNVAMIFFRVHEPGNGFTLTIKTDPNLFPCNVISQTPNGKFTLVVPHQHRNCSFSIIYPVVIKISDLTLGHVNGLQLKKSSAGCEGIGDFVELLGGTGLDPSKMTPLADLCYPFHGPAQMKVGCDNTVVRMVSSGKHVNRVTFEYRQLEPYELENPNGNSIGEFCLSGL

[5] = target: T2, Corticotropin-releasing factor receptor 2/Corticotropin-releasing factor-binding protein; experiment: activators of CRF receptor 2 with binding protein – uHTS hits, confirmation (AID 602473); assay type: functional; settings: read-out: EC50_Mean
[6] = CRF-BP/CRF-R2 complex antagonists, dose response, cell-based, uHTS hits, 384-well (AID 651639); assay type: functional, Homo sapiens; settings: read-out: IC50_Mean
Cytochrome P450 2D6 = Cytochrome P450 2D6 (Homo sapiens, UniProt P10635);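 note: CYP2D6 member of a cytochrome P450 panel assay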
Cytochrome P450 2D6, sequence (P10635 whole entry): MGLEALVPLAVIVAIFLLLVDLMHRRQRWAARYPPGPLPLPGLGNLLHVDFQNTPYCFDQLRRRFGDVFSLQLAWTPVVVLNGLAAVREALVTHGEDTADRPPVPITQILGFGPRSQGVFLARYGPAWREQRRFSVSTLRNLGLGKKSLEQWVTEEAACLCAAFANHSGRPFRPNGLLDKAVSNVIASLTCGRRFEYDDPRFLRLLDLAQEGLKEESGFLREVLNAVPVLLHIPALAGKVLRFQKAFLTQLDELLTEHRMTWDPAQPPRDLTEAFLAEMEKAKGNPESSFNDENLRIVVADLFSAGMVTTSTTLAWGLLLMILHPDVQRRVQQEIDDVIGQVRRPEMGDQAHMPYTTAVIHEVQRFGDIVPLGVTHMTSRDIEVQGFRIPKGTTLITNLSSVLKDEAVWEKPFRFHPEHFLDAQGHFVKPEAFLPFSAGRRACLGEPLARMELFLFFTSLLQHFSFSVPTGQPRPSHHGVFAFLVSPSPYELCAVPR

[7] = system: Streptococcus sp. 'group A'; experiment: growth inhibition of control SK(-) GAS strain, dose response, counter-screen for streptokinase expression inhibitor project, luminescence, kanamycin, BacTiterGlo, confirmation (AID 1900); assay type: functional, organism-based
Streptokinase A = target: T3, Streptokinase A (Streptococcus pyogenes serotype M1, UniProt P10520); experiment: S. pyogenes streptokinase expression inhibitors, potency, dose response, plasminogen activation absorbance, OD405 (AID 1914); assay type: functional, Streptococcus pyogenes M1 GAS;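 note: secreted streptokinase activity via plasminogen activation per viability signal from cell pellet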
T3 sequence (P10520 whole entry): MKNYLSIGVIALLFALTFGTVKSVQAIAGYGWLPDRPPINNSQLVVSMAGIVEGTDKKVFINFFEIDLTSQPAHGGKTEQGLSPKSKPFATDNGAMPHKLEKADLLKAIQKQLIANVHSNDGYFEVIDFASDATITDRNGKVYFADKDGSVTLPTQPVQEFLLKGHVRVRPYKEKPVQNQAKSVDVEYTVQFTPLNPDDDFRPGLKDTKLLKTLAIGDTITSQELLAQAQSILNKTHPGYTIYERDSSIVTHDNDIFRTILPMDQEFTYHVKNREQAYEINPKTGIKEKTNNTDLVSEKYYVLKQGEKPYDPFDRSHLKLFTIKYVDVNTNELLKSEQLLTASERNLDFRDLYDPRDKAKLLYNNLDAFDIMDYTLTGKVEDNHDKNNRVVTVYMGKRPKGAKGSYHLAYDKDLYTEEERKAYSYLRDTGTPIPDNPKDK

[8] = target: T4, Calpain-2 catalytic subunit (Sus scrofa, UniProt P43367); experiment: pig calpain II inhibitor potency, dose response, biochemical, fluorogenic peptide substrate (AID 1420); assay type: functional
T4 sequence (P43367 whole entry): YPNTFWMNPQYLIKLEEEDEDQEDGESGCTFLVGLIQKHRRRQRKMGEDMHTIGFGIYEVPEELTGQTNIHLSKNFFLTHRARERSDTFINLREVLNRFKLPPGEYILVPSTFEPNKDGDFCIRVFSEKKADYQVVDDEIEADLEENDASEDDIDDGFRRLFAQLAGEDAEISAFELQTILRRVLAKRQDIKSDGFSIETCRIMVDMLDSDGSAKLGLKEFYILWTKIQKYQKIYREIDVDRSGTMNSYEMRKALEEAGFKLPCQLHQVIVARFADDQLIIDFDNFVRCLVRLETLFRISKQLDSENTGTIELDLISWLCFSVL

Streptococcus = experiment: Group A Streptococcus viability loss, dose response, counter-screen for streptokinase expression inhibitor project, luminescence, BacTiterGlo (AID 1915); assay type: functional, organism-based;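 note: potency for reduction of bacterial viability or growth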
X-box-binding protein 1 = target: T5, X-box-binding protein 1 (Homo sapiens, UniProt P17861); assay type: functional, Cricetulus griseus;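 note: confirmatory dose-response counter-screen serving a CHOP assay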
T5 sequence (P17861 whole entry): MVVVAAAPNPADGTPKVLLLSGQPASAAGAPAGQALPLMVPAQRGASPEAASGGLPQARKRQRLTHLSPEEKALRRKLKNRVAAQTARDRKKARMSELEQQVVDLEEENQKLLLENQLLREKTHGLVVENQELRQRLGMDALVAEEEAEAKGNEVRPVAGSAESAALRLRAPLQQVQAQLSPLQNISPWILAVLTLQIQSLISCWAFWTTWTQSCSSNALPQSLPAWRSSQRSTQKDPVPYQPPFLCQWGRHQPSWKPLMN

[9] = target: Heat shock protein HSP 90-alpha (Homo sapiens, UniProt P07900); assay type: functional, organism-based
INS1 = experiment: beta cell apoptosis inhibitors, cytokine rescue, dose response, luminescence, retest (AID 449756); assay type: functional, cell-based; settings: Rattus norvegicus;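 note: cell death triggered by IL-1 beta plus TNF-alpha plus IFN-gamma mixture; protective hits raise ATP signal compared with cytokine alone wells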
Genome polyprotein = Genome polyprotein (dengue virus type 2, UniProt P29990); experiment: Dengue-2 NS5 methyltransferase inhibitors, primary screen, biochemical, confirmation dose response (AID 588689); assay type: functional
Genome polyprotein, sequence (P29990 2492-3391 limits assumed): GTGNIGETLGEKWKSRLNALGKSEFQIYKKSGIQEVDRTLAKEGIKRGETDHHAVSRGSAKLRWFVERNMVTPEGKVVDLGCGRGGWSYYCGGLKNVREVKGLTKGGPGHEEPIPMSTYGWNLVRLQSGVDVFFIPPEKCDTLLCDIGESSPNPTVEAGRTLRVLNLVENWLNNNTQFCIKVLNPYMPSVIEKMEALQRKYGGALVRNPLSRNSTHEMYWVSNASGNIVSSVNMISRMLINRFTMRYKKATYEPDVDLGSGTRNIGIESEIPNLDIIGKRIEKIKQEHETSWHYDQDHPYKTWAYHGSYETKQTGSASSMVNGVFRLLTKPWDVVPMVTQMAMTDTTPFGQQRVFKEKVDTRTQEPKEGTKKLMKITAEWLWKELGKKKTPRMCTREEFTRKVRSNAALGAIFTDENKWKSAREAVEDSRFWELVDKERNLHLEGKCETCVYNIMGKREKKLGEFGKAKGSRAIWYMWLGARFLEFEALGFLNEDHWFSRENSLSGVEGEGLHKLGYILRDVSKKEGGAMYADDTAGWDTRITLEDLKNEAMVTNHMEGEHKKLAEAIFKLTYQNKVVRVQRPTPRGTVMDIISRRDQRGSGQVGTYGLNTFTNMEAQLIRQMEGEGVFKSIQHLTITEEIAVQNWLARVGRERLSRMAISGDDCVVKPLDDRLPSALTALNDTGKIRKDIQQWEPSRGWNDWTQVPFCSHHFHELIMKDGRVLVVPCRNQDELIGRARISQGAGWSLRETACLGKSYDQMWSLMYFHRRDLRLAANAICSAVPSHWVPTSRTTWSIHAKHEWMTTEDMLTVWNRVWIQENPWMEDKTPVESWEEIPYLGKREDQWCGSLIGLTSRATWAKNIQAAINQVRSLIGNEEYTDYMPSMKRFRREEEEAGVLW

[10] = inhibitors of intracellular T. cruzi replication, confirmation, NIH3T3 host cells, beta-gal luminescence (AID 2044); assay type: functional, cell-based;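 note: intracellular parasites grown in NIH/3T3 mouse fibroblasts as host cells; luminescent beta-galactosidase reporter signal from transgenic T. cruzi replicating inside host cells; inhibitors lower the luminescence signal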
[11] = target: T6, RNA-binding protein pos-1 (Caenorhabditis elegans, UniProt G5EF15); experiment: inhibitors of POS-1/mex-3 RNA binding, dose response, biochemical, fluorescence polarization (AID 1964);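 note: purified POS-1 fused to maltose binding protein made in E. coli; potency of compounds blocking POS-1 binding to fluorescent RNA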
T6 sequence (G5EF15 whole entry): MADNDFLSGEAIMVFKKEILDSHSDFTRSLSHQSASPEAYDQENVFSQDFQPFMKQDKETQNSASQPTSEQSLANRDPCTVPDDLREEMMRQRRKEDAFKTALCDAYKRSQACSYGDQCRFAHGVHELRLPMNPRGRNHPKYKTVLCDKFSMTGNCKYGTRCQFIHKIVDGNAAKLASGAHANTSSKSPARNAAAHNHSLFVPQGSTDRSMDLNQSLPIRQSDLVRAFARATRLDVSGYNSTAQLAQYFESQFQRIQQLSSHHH

[12] = target: T7, Zinc finger protein mex-5 (Caenorhabditis elegans, UniProt Q9XUB2); experiment: MEX-5/TCR-2 RNA interaction inhibitors, dose response, biochemical, C. elegans, fluorescence polarization (AID 1960)
T7 sequence (Q9XUB2 whole entry): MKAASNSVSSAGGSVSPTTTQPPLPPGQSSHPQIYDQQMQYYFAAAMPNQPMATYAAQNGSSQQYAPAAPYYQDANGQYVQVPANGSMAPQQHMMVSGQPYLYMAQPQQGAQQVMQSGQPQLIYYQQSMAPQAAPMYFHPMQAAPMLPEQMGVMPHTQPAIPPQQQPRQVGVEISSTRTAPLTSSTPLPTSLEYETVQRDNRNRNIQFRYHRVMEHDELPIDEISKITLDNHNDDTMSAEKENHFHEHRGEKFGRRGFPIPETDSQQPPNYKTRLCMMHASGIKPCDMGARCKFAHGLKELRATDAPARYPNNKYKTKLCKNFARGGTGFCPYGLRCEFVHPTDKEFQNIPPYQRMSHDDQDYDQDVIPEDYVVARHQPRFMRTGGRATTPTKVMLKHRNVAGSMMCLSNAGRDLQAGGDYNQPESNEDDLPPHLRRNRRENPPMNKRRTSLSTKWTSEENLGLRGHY

[13] = target: T8, Rac GTPase-activating protein 1 (Homo sapiens, UniProt Q9H0H5); experiment: MgcRacGAP GTPase-activating activity inhibitors, confirmation, biochemical, ADP Hunter fluorescence, primary and confirmatory (AID 624330); assay type: functional
T8 sequence (Q9H0H5 whole entry): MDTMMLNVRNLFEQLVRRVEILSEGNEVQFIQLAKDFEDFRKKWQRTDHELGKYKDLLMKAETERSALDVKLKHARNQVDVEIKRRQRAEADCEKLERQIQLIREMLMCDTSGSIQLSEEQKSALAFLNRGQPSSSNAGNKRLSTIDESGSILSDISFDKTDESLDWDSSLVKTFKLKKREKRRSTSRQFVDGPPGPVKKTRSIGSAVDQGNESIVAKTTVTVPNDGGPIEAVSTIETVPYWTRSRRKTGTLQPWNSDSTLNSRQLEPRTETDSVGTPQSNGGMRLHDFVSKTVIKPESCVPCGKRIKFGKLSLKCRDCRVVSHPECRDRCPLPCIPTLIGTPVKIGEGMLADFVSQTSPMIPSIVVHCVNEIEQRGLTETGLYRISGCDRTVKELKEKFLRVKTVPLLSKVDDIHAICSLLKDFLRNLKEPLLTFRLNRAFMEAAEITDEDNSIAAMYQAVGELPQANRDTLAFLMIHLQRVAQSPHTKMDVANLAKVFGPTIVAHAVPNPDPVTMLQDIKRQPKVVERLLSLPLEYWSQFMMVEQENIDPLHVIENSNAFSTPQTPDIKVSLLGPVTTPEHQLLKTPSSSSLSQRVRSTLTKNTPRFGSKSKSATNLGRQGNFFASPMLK

COc1cccc(CNc2ncnc3cc(Cl)ccc23)c1
AC50 [1]: 3.73 µM (active)
AC50 [2]: > 70 µM (inactive)
AC50 [3]: 5.85 µM (active)

Cc1ccc(S(=O)(=O)N(Cc2ccccc2)c2ccccc2C(=O)NCc2ccco2)cc1
IC50 (Coagulation factor XII): > 50 µM (inactive)
IC50 [4]: < 0.368 µM (active)
EC50 [5]: > 53 µM (inactive)
IC50 [6]: 6.81 µM (active)
AC50 (Cytochrome P450 2D6): 15.8 µM (inconclusive)

O=[N+]([O-])c1ccc(NC(S)=NCCc2ccc(Cl)cc2)cc1
EC50 [7]: 2.92 µM (active)
EC50 (Streptokinase A): 18.9 µM (active)
IC50 [8]: 1.82 µM (not active)
EC50 (Streptococcus): 33.2 µM (active)
Absolute IC50 (XBP1) (X-box-binding protein 1): 10 µM
AC50 [9]: 4.1 µM (active)
AC50 (INS1): 7.38 µM (active)

O=C(Nc1ccccc1C(=O)O)c1cccc(C(=O)Nc2ccccc2C(=O)O)c1
IC50 (Genome polyprotein): 54.9 µM (active)

Oc1c(C(Nc2ccccn2)c2cccnc2)cc(Cl)c2cccnc12 (configuration not stated)
EC50 [7]: 4.69 µM (active)
EC50 (Streptokinase A): > 150 µM (not active)
EC50 [10]: 1.64 µM (active)
EC50 (Streptococcus): 9.26 µM (active)
AC50 [9]: 4.19 µM (active)
AC50 (INS1): 2.65 µM (active)

CSc1sccc1/C=C(/C#N)C(=O)c1ccco1
EC50 [11]: > 300 µM (not active)
EC50 [12]: > 300 µM (not active)
IC50 (Genome polyprotein): > 100 µM (active)
IC50 [13]: 22.8 µM (active)

CN(C)/C=C/C(=O)c1ccc2noc(-c3ccccc3)c2c1
AC50 [9]: 2.51 µM (active)

CC(C)c1ccc(Nc2ccc(C(=O)O)cc2[N+](=O)[O-])cc1
IC50 (Genome polyprotein): 70.7 µM (active)

O=[N+]([O-])c1cc(-c2ccccc2)cc([N+](=O)[O-])c1O
IC50 (Genome polyprotein): 58.8 µM (active)
IC50 [4]: 9.96 µM (active)
EC50 [5]: > 53 µM (inactive)
IC50 [6]: > 20 µM (inactive)
